# From patent EP2769738B1, “Conjugated TLR7 and/or TLR8 and TLR2 polycationic agonists” (Invivogen, priority 2013, dated 2014)
# Experiments:
# human TLR7 = molecular target: T1, human TLR7 (Homo sapiens, UniProt Q9NYK1); test: HEK-Blue hTLR7 NF-κB/AP-1-inducible SEAP reporter cell assay; format: cell-based; details: Figure 1; 10 µg/mL to 10 pg/ml, 24 hours, SEAP read as OD at 655 nm
# T1 construct: host or cells: HEK293 (ATCC, CRL-1573), HEK-Blue hTLR7
# T1 sequence (Q9NYK1 27-1049): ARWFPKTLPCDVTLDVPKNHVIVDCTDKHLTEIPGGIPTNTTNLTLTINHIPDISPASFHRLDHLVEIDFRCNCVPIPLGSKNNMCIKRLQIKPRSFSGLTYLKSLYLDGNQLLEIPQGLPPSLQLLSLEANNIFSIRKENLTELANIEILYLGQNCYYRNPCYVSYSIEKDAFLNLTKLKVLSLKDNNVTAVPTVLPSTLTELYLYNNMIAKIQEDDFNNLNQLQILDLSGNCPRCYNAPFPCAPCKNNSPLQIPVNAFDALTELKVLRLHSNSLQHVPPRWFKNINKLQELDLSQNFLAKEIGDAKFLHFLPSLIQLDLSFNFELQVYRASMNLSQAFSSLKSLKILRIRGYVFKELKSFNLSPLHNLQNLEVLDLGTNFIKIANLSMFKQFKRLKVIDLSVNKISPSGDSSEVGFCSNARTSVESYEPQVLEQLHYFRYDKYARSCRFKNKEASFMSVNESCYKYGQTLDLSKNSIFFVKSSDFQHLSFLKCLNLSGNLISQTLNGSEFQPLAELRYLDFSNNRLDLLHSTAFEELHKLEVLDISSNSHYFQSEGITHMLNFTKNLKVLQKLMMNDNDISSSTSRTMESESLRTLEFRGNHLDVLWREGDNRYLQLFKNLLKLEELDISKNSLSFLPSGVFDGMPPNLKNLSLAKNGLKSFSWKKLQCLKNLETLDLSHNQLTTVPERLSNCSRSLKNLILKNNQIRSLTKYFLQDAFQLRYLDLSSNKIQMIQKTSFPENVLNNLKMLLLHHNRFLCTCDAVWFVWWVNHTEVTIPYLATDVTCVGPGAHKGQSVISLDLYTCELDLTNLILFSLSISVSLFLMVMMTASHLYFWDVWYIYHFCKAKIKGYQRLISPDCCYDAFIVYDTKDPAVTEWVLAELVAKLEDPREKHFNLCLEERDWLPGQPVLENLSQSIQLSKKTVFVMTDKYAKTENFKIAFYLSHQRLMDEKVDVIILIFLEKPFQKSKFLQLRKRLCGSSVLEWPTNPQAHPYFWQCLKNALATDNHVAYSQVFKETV
# Description: (§1) Assays for detecting TLR7, TLR8 or TLR2 activity are known in the art and include for example cell-based assays using respectively TLR7, TLR8 or TLR2 reporter cell lines (InvivoGen). The reporter cell lines are engineered HEK293 cells, a human embryonic kidney cell line (ATCC, CRL-1573) that stably express either murine TLR7 (HEK-Blue™ mTLR7) or human TLR7 (HEK-Blue™ hTLR7), human TLR8 (HEK-Blue™ hTLR8) or human TLR2 (HEK- Blue™ hTLR2) with an NF-κB-inducible secreted embryonic alkaline phosphatase (SEAP) as the reporter gene.
# (§2) Cell-based assays were carried out using TLR7 and TLR2 reporter cell lines (InvivoGen). The reporter cell lines are engineered HEK293 cells, a human embryonic kidney cell line (ATCC, CRL-1573) that stably express either murine TLR7 (HEK-Blue™ mTLR7) or human TLR7 (HEK-Blue™ hTLR7) or human TLR2 (HEK- Blue™ hTLR2) with an NF-κB-inducible secreted embryonic alkaline phosphatase (SEAP) as the reporter gene. The SEAP reporter gene is under the control of the NF-κB and AP-1-inducible promoter, which, upon treatment with a corresponding TLR ligand and activation of NF-κB and AP-1, induces the production of SEAP. Detection of SEAP is measured following culturing cells in HEK-Blue™ Detection media (InvivoGen). HEK-Blue™ Detection contains a SEAP substrate that when hydrolysed by SEAP produces a colorimetric change allowing for detection of SEAP as the protein is secreted. […] These assays were carried out using RAW-Blue™ Cells (InvivoGen), derived from RAW 264.7 mouse leukemic monocyte macrophage cell line (ATCC, CRL 2278) stably overexpressing a NF-κB /AP-1 inducible SEAP reporter constructs.
# (§3) To perform the assay, cells were seeded on 96 well microliter plates at 50,000 or 100,000 cells per well for HEK-Blue™ Cells and RAW-Blue™ Cells respectively, and cultured at 37 °C in the presence of the conjugated compounds The TLR7-TLR2 polyamine molecules were prepared as follows: First, stock solutions of the conjugated compounds of the invention were prepared in ethanol or water to a concentration of 10 mg/ml.
# (§4) The working dilutions of the conjugated TLR7-TLR2 polyamine agonists made up in water or PBS were directly added to the reporter cell lines at a final concentration ranging from 10 µg/mL to 10 pg/ml and incubated at 37 °C for 24 hours. After 24 hours of incubation, the effect on reporter gene activity was determined by reading the OD at 655 nm using iMark™ Microplate Reader (BIO-RAD).
# human TLR2 = molecular target: T2, human TLR2 (Homo sapiens, UniProt O60603); test: HEK-Blue hTLR2 NF-κB/AP-1-inducible SEAP reporter cell assay; format: cell-based; details: Figure 3; 10 µg/mL to 10 pg/ml, 24 hours, SEAP read as OD at 655 nm
# T2 construct: host or cells: HEK293 (ATCC, CRL-1573), HEK-Blue hTLR2
# T2 sequence (O60603 21-784): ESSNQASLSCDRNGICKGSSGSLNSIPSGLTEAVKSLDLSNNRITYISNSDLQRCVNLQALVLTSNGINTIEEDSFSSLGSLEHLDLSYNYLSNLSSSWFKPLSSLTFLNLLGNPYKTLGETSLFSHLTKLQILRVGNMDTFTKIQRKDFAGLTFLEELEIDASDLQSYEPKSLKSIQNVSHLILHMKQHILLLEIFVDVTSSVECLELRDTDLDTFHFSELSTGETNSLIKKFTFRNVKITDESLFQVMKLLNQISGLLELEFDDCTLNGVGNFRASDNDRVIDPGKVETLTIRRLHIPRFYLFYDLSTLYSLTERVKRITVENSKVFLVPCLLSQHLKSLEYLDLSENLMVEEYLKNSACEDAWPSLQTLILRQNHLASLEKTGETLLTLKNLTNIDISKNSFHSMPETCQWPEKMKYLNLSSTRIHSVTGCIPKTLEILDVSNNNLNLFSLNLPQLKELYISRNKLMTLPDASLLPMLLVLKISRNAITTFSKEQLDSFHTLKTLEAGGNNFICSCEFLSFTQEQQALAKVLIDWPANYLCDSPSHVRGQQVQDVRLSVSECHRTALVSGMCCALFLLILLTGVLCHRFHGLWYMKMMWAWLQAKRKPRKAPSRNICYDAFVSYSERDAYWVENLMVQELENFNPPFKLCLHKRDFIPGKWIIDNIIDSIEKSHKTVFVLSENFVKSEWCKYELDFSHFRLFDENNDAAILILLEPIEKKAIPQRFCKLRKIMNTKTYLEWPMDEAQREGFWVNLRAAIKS
# Description: as §1, §2, §3, §4
Structure (SMILES),ability to activate hTLR7 (human TLR7),ability to activate hTLR2 (human TLR2)
"CCCCCCCCCCCCCCCC(=O)OCC(CSC[C@H](N)C(=O)N[C@@H](CCCCNC(=O)CNC(=O)c1ccc(Cn2c(O)nc3c(N)nc(NCCCC)nc32)cc1)C(=O)NCCCNCCCCNCCCN)OC(=O)CCCCCCCCCCCCCCC (stereo partly drawn) [CL475, (6R,9S)-6,23-diamino-9-(4-(2-(4-((6-amino-2-(butylamino)-8-hydroxy-9H-purin-9-yl)methyl)benzamido)acetamido)butyl)-7,10-dioxo-4-thia-8,11,15,20-tetraazatrico sane-1,2-diyl dipalmitate]",activate hTLR7,activate hTLR2
"CCCCCCCCCCCCCCCC(=O)OCC(CSC[C@H](N)C(=O)NCCCC[C@H](NC(=O)c1ccc(Cn2c(O)nc3c(N)nc(NCCCC)nc32)cc1)C(=O)NCCCNCCCCNCCCN)OC(=O)CCCCCCCCCCCCCCC (stereo partly drawn) [CL486, (6R,13S)-6,27-diamino-13-(4-((6-amino-2-(butylamino)-8-hydroxy-9H-purin-9-yl)methyl)benzamido)-7,14-dioxo-4-thia-8,15,19,24-tetraazaheptacosane-1,2-diyl dipalmitate]",activate hTLR7,activate hTLR2
"CCCCCCCCCCCCCCCC(=O)OCC(CSC[C@H](N)C(=O)NCCCC[C@H](NC(=O)CNC(=O)c1ccc(Cn2c(O)nc3c(N)nc(NCCCC)nc32)cc1)C(=O)NCCCNCCCCNCCCN)OC(=O)CCCCCCCCCCCCCCC (stereo partly drawn) [CL487, (6R,13S)-6,27-diamino-13-(2-(4-((6-amino-2-(butylamino)-8-hydroxy-9H-purin-9-yl)methyl)benzamido)acetamido)-7,14-dioxo-4-thia-8,15,19,24-tetraazaheptacosane-1,2-diyl dipalmitate]",activate hTLR7,activate hTLR2
"CCCCCCCCCCCCCCCC(=O)OCC(CSC[C@H](N)C(=O)N[C@@H](COC(=O)c1ccc(Cn2c(O)nc3c(N)nc(NCCCC)nc32)cc1)C(=O)NCCCNCCCCNCCCN)OC(=O)CCCCCCCCCCCCCCC (stereo partly drawn) [CL514, (6R,9S)-6,23-diamino-9-((4-((6-amino-2-(butylamino)-8-hydroxy-9H-purin-9-yl)methyl)benzoyloxy)methyl)-7,10-dioxo-4-thia-8,11,15,20-tetraazatricosane-1,2-diyl dipalmitate]",activate hTLR7,activate hTLR2
"CCCCCCCCCCCCCCCC(=O)OCC(CSC[C@H](N)C(=O)N[C@@H](CCC(=O)NCCCNCCCCNCCCN)C(=O)Nc1ccc(Cn2c(O)nc3c(N)nc(NCCCC)nc32)cc1)OC(=O)CCCCCCCCCCCCCCC (stereo partly drawn) [CL527, (6R,9S)-6,25-diamino-9-(4-((6-amino-2-(butylamino)-8-hydroxy-9H-purin-9-yl)methyl)phenylcarbamoyl)-7,12-dioxo-4-thia-8,13,17,22-tetraazapentacosane-1,2-diyl dipalmitate]",activate hTLR7,activate hTLR2
"CCCCCCCCCCCCCCCC(=O)OCC(CSC[C@H](N)C(=O)NCCCNCCCCNCCCNC(=O)CNC(=O)c1ccc(Cn2c(O)nc3c(N)nc(NCCCC)nc32)cc1)OC(=O)CCCCCCCCCCCCCCC (stereo partly drawn) [CL553, (20R)-20-amino-1-(4-((6-amino-2-(butylamino)-8-hydroxy-9H-purin-9-yl)methyl)phenyl)-1,4,19-trioxo-22-thia-2,5,9,14,18-pentaazapentacosane-24,25-diyl dipalmitate]",activate hTLR7,activate hTLR2
